Measurements taken from patent publication US20050064382A1, “Method of prevention of lysosomal leakage in eukaryotic cells by using 6-methyluracil based water-soluble compounds and method of producing thereof” (priority 2002, published 2005).

Key:
Drosophila [1] = test: Sterol-deficit diet and both drugs: frequency of X-chromosomes loss in late oocytes of Drosophila; format: in vivo; conditions: yeast of wild type
Description: The classic genetic model was used, based on the well-known method: the frequency of mutations in Drosophila (fruit flies) caused by X-rays. It is known that the frequency of these mutations can be increased by adding to the food of females certain membrane destabilizers (we used Polyene Antibiotics—Amphotericin B), or by the use of a special diet. Like all insects, Drosophila obtain all of their sterols from food (yeast for Drosophila). A special diet rich with Nistatin (Polyene antibiotic) resistant yeast was used.
The frequency of the loss of x-chromosomes (males excluded) was measured after crossing with the […]. Females were given a dose of 1000 Roentgens 5 days before being given the food additive or “special diet”.
Influence of sterol-deficit diet and both drugs on the frequency of X-chromosomes loss in late oocytes of Drosophila. Groups 1-4 received yeast of wild type, groups 5,6 (diet) received nistatin resistant yeasts meaning groups 5,6 had abnormal sterols in membranes: […]

Drosophila [2] = test: X-ray caused loss of X-chromosomes in late oocyte of Drosophila; format: in vivo; conditions: 1000 Roentgens
Water solubility = format: physicochemical

| Structure (SMILES) | Frequency of X-Chromosomes loss, % (Drosophila [1]) [%] | Frequency of the loss of X-chromosomes, % (Drosophila [2]; 1.0 mkg/female) [%] | Frequency of the loss of X-chromosomes, % (Drosophila [2]; 5.0 mkg/female) [%] | Frequency of the loss of X-chromosomes, % (Drosophila [2]; 10.0 mkg/female) [%] | Frequency of the loss of X-chromosomes, % (Drosophila [2]; 15.0 mkg/female) [%] | Frequency of the loss of X-chromosomes, % (Drosophila [2]; 20.0 mkg/female) [%] | solubility (Water solubility) [µg/mL] |
| --- | --- | --- | --- | --- | --- | --- | --- |
| C[C@@H]1[C@H](O)[C@@H](C)/C=C/C=C/C=C/C=C/C=C/C=C/C=C/[C@H](O[C@@H]2O[C@H](C)[C@@H](O)[C@H](N)[C@@H]2O)C[C@@H]2O[C@](O)(C[C@@H](O)C[C@@H](O)[C@H](O)CC[C@@H](O)C[C@@H](O)CC(=O)O[C@H]1C)C[C@H](O)[C@H]2C(=O)O [Amphotericin B, reference compound] | 4.3 ± 0.29 | 1.4 ± 0.19 | 2.1 ± 0.21 | 3.6 ± 0.35 | 4.1 ± 0.41 | 4.2 ± 0.61 | – |
| O=C1CCC(N2C(=O)c3ccccc3C2=O)C(=O)N1 (stereo not shown) [thalidomides, thalidomide] | – | – | – | – | – | – | < 3000 |
